The results in this text go back to patent publication US20090012148A1, “REDUCING CELLULAR CHOLESTEROL LEVELS AND/OR TREATING OR PREVENTING PHOSPHOLIPIDOSIS” (priority 2005, published 2009).

In experiment [1] the test system is CT60 cells. The experiment can be described thus: Gas chromatography cholesterol assay. Type of experiment: cell-based, Chinese hamster. As to conditions: 10 μM, FC = free cholesterol. The protocol:
The cholesterol lowering effect of the 14 hit compounds identified by filipin labeling was measured by an alternative chemical method that involved GC separation of solvent-extracted cellular lipids (43). CT60 cells were treated with compounds at 10 μM under the same conditions as in the screening assays. Since the GC assay estimates FC content per cell, the values are compared to the average filipin intensity assay (Table 1).
CT60 or CT43 cells were plated on day 1 in 6-well plates. Hit compounds were added to the cells at 10 μM concentration. Cells were incubated for 24 h. Cellular lipids were extracted with hexane: iso-propyl alcohol (3:2 v/v). The lipid extracts were dried and re-suspended in hexane followed by separation on gas chromatograph using β-sitosterol as an internal standard.
Procedure: CT60 cells were plated in 6-well plates in Ham's F-12/1.176 g/L sodium bicarbonate/2 g/L glucose/10% FBS. Following 24 h incubation, cells were treated with 10 μM of each compounds, medium being replaced with Ham's F-12/1.176 g/L sodium bicarbonate/2 g/L glucose/5.5% FBS/20 mM HEPES. The change of the medium in the wells was performed to have experimental conditions similar to those used for the screening once chemical compounds were added to the cells. After 18 h treatment with compounds, cells were washed twice with Hank's balanced salt solutions (HBSS). Cellular lipids were extracted with hexane/isopropyl alcohol (3:2 v/v) (43) dried and resuspended in hexane followed by separation on a gas chromatograph (GC) using following conditions. A Hewlett Packard GC model HP 5890 series II (Palo Alto, Calif.) equipped with a flame ionization detector, split-splitless injector, and 15 m×0.53 mm HP-5 capillary column coated with […] film thickness of 5% phenyl methyl siloxane was used to separate free cholesterol. The injection temperature was maintained at 255° C. and oven temperature was held isothermally at 260° C. using helium as a mobile phase at 30 mL/min flow rate. The free cholesterol (FC) was quantified using beta-sitosterol as internal standard to correct for lipid losses during extraction.

Experiment [2] has as its system CT60 cells. The experiment can be described thus: Filipin binding assay, average filipin intensity and staining pattern. Type of experiment: cell-based, Chinese hamster. The settings on record: 10 μM; for Average filipin intensity Fraction of control: 14 hit compounds from primary library. Here is the method: We developed assays for correction of the NPC phenotype in CHO cell lines using filipin, which binds to non-esterified cholesterol and has been used to visualize the free cholesterol content in NPC cells. The initial screens were carried out in CT60 cells, which express a mutated hamster NPC1 protein and a gain of function mutation in SCAP (42). These cells cannot traffic LDL-derived cholesterol out of late endosomes, and large amounts of cholesterol accumulate in LSO compartments. FIGS. 1A-B show images of filipin staining in a control CHO cell line, TRVb1 (45) (FIG. 1A) and in CT60 cells (FIG. 1B). It can be seen that the CT60 cells show much more filipin staining than control cells and that the fluorescence in CT60 cells is concentrated in peri-nuclear organelles.
For screening, images were acquired using a Discovery-1 automated microscopy system with a 10× objective and corrected for background and shading as described in Methods. Two thresholds were set for filipin staining, a low threshold to include all cell areas, and a high threshold for the strong filipin staining in the peri-nuclear LSOs. The threshold values were set for each plate from analysis of 64 images in 32 wells of untreated CT60 cells. […] In developing the low threshold, we compared the outlines based on the thresholded cell images with transmitted light images, and the thresholds provided good agreement with the transmitted light cell boundaries.
As a simple measure of the intensity of filipin staining, we measured the filipin intensity per pixel above the threshold. The conditions of filipin labeling (time and concentration) were adjusted to optimize the discrimination between the CT60 cells and control TRVb1 cells. […] The quality of the assay for screening is expressed in terms of a statistical parameter Z′(46):
Using the above screening technique, we screened a library of 14,956 compounds added to cells for 16 hours at a final concentration of 10 μM, using a single well for each compound. Prior to application of the compounds, cells were grown in normal tissue culture medium containing 10% FBS, so the LSOs were filled with cholesterol (FIG. 1B). The cells were then imaged and analyzed using the average filipin intensity assay and the LSO compartment assay. In general, the two analyses identified similar compounds that reduced the filipin labeling.
Compound addition: The library compounds were formatted for screening in the Rockefeller University High Throughput Screening Facility. Cells were treated with the compounds from the chemical library one day after plating. We added […] of each compound (5 mM stock in DMSO) to 25 μl of screening Medium S composed of medium A supplemented with 1% FBS and 20 mM 4-(2-hydroxyethyl)-1-pipiperazine ethane sulphonic acid (HEPES) in Falcon 384-well V-bottomed polypropylene plates using a Packard MiniTrak™ robotic liquid handling system. To obtain ˜10 μM final concentration, 23 μl of the premixed compounds were dispensed into the plates containing cells and […] of culture medium A. For primary screening, 352 test compounds were added to each plate, and the remaining 32 wells were used as a control with only DMSO added. All plates were incubated with compounds for 16 h at 37° C. Plates were then washed three times with phosphate buffered saline pH 7.4 (PBS) using a Bio-Tek Elx405 plate washer (Bio-Tek Instruments Inc., Winooski, Vt.). For each wash cycle, […] of PBS was dispensed followed by aspiration with a residual volume of 16 μl per well. Finally, cells were fixed with 1.5% PFA in PBS for 20 min at room temperature, followed by 3 more washes with PBS.
Fluorescence labeling. To the fixed cells, filipin was added at a final concentration of 50 μg/ml in PBS for 45 m at room temperature to label free cholesterol. Cells were finally washed three times with PBS, and images were acquired immediately after labeling. […]

Experiment [3] relates to normal human fibroblasts. The experiment can be described thus: Filipin staining of normal human fibroblasts. As to conditions: data not shown. Type of experiment: cell-based. Here is the method:
These cells show rearrangements that may indicate that cholesterol has been redirected to a different compartment or that the morphology of the LSOs themselves has been changed (compound 1-c-3, FIG. 4C).
(§1) Normal human fibroblasts (GM5659E) were grown in MEM with 1% P/S and 10% FBS. For microscopy, fibroblasts were plated in normal growth medium on glass-bottomed 35 mm dishes or in 384-well plates.

The test system of experiment [4] is normal human fibroblasts. Briefly: Filipin LSO ratio assay on U18666A-treated normal human fibroblasts. Format: cell-based. The settings on record: 250 nM or 500 nM, 20 hours. The protocol:
FIG. 12 depicts the effect of 7 compounds (2-a-1, 2-a-3, 2-a-8, 2-a-9, 2-a-12, 2-a-13, 2-a-15) from the second library on U18666A-treated normal human fibroblasts. Normal human fibroblasts were plated in 384 well plates and grown in regular growth medium for 24 h, after which the cells were treated with compound U18666A (500 nM or 250 nM) in screening medium for 4 h. The cells were then further incubated overnight with hit compounds (10 μM) in the continued presence of U18666A. Finally, cells were washed three times with PBS, fixed with 1.5% PFA, washed with PBS and stained with filipin. Images were acquired using the Discovery1 microscope at 10× magnification and analyzed for the LSO ratio. Solid horizontal lines are the mean for U18666A-treated cells at each concentration, and the dotted horizontal lines indicate −3 SD.
as §1
Normalized values were obtained by dividing the values in the presence of each compound by the values obtained in presence of solvent control for each plate. Similar methods were used to analyze the effects of compounds on human fibroblasts treated with U18666A to induce cholesterol retention in LSOs. […]

“Also recorded” adds a separate entry of the source.

Regarding `Nc1c(Sc2ccccc2)cc(Sc2ccccc2)c2c1C(=O)c1ccccc1C2=O` [Compound 1-a-1], the “μg FC/μg Protein by GC Fraction of control” value in the experiment with CT60 cells [1] was 1.02 ± 0.03 Fraction of control. Also, the “Average filipin intensity Fraction of control” value in the experiment with CT60 cells [2] is on record as 0.87 ± 0.04 Fraction of control.

Consider `C=CCN1C(=O)C(=CC=Cc2ccc(N(C)C)cc2)SC1=S` [Compound 1-a-2], for which, in the experiment on CT60 cells [1], the “μg FC/μg Protein by GC Fraction of control” value is 1.15 ± 0.05 Fraction of control. Further, in the experiment on CT60 cells [2], the “Average filipin intensity Fraction of control” value is given as 0.88 ± 0.04 Fraction of control.

As to `CCOc1ccc(NN=C2C(=O)N(c3nc(-c4ccccc4)cs3)N=C2c2ccccc2)cc1` [Compound 1-a-3], the “μg FC/μg Protein by GC Fraction of control” value in the experiment on CT60 cells [1] is 1.27 ± 0.07 Fraction of control. Further, the “Average filipin intensity Fraction of control” value in the experiment with CT60 cells [2] was 0.95 ± 0.04 Fraction of control.

Turning to `COc1ccccc1NN=C1C(=O)N(c2nc(-c3ccc(Cl)cc3)cs2)N=C1C` [Compound 1-a-4], in the experiment with CT60 cells [1], the “μg FC/μg Protein by GC Fraction of control” value is 0.87 ± 0.07 Fraction of control. For the same molecule, the “Average filipin intensity Fraction of control” value with CT60 cells [2] is 1.01 ± 0.04 Fraction of control.

`O=C1C(=Cc2ccc(-c3ccc(Cl)c(Cl)c3)o2)C=C(c2ccccc2)N1c1ccc(O)cc1` [Compound 1-a-5]: in the experiment with CT60 cells [1], the “μg FC/μg Protein by GC Fraction of control” value is on record as 1.18 ± 0.06 Fraction of control. Also, the “Average filipin intensity Fraction of control” value in the experiment with CT60 cells [2] is given as 0.89 ± 0.04 Fraction of control.

For the molecule `O=C1C(=Cc2ccc(-c3ccc(Cl)c(Cl)c3)o2)C=C(c2ccccc2)N1c1ccccc1O` [Compound 1-a-6], the “μg FC/μg Protein by GC Fraction of control” value with CT60 cells [1] is given as 1.37 ± 0.01 Fraction of control. Further, the “Average filipin intensity Fraction of control” value with CT60 cells [2] is 0.92 ± 0.04 Fraction of control.

Turning to `O=C1C(=Cc2ccc(-c3cc(Cl)ccc3Cl)o2)C=C(c2ccccc2)N1c1ccc(O)cc1` [Compound 1-a-7], the “μg FC/μg Protein by GC Fraction of control” value in the experiment with CT60 cells [1] is reported as 1.04 ± 0.13 Fraction of control. Besides, the “Average filipin intensity Fraction of control” value with CT60 cells [2] was 0.89 ± 0.04 Fraction of control.

Turning to `O=C1C(=Cc2ccc(-c3ccc(Br)cc3)o2)C=C(c2ccccc2)N1c1ccc(O)cc1` [Compound 1-a-8], the “μg FC/μg Protein by GC Fraction of control” value in the experiment on CT60 cells [1] was 1.31 ± 0.10 Fraction of control. Besides, the “Average filipin intensity Fraction of control” value in the experiment with CT60 cells [2] is given as 0.90 ± 0.04 Fraction of control.

In the case of `O=C1Nc2ccccc2C1=NNc1nc(N2CCCCC2)nc(N2CCCCC2)n1` [Compound 1-a-9], the “μg FC/μg Protein by GC Fraction of control” value with CT60 cells [1] is reported as 0.86 ± 0.07 Fraction of control. For the same molecule, in the experiment on CT60 cells [2], the “Average filipin intensity Fraction of control” value is reported as 0.99 ± 0.04 Fraction of control.

In the case of `Cc1cc([N+](=O)[O-])ccc1NC(=O)CC1SC(=Nc2ccccc2)N(c2ccccc2)C1=O` (stereo not shown) [Compound 1-a-10], in the experiment on CT60 cells [1], the “μg FC/μg Protein by GC Fraction of control” value is given as 1.23 ± 0.08 Fraction of control. Also, the “Average filipin intensity Fraction of control” value with CT60 cells [2] is recorded as 0.96 ± 0.04 Fraction of control.

With `CCOC(=O)c1sc(NC(=O)c2ccccc2C)nc1-c1ccccc1` [Compound 1-a-11], the “μg FC/μg Protein by GC Fraction of control” value in the experiment with CT60 cells [1] is reported as 0.82 ± 0.07 Fraction of control. Moreover, the “Average filipin intensity Fraction of control” value in the experiment with CT60 cells [2] is recorded as 0.90 ± 0.04 Fraction of control.

With `CN(C)c1cc(NN=Cc2cccs2)nc(N(C)C)n1` [Compound 1-a-12], the “μg FC/μg Protein by GC Fraction of control” value in the experiment on CT60 cells [1] is 0.73 ± 0.03 Fraction of control. In addition, the “Average filipin intensity Fraction of control” value in the experiment on CT60 cells [2] is on record as 0.91 ± 0.04 Fraction of control.

On to `O=C(O)c1ccc(N2C(=O)C(=Cc3ccc(-c4ccc(Br)cc4)o3)C=C2c2ccccc2)cc1` [Compound 1-a-13], for which the “μg FC/μg Protein by GC Fraction of control” value in the experiment with CT60 cells [1] is listed as 1.54 ± 0.11 Fraction of control. Besides, the “Average filipin intensity Fraction of control” value in the experiment on CT60 cells [2] is 0.97 ± 0.04 Fraction of control.

Turning to `Clc1ccccc1N1N=C(C=Cc2cccs2)CC1c1cccs1` (stereo not shown) [Compound 1-b-2], in the experiment on CT60 cells [2], the “change in filipin intensity” value was “increase in filipin intensity; also recorded: increased filipin intensity”.

On to `CC(C)(C)c1ccc(C(=O)Nc2ccc(-c3nc4ccccc4o3)c(O)c2)cc1` [Compound 1-b-4], for which the “effect on filipin staining compared with CT60 cells” value in the experiment with normal human fibroblasts [3] was “similar”. Besides, in the experiment with CT60 cells [2], the “change in filipin intensity” value was “significant increase; also recorded: increased filipin-intensity; also recorded: increased filipin intensity” and the “morphological change of the filipin staining pattern” value (from here on “morphological change”) is listed as “filamentous or tubular staining; also recorded: induced morphological changes; also recorded: bright swirls of filipin staining”.

Consider `CCN(CC)C(=O)CCN1C(=O)C(=Cc2ccc(F)cc2)SC1=S` [Compound 1-c-2], for which, in the experiment on CT60 cells [2], the “change in filipin intensity” value was “no significant change” and the “morphological change” value is listed as “more compact LSOs; also recorded: morphological changes”.

As for `CC1=NN(c2ccccc2)C(=O)C1=NNc1ccccc1C(=O)O` [Compound 1-c-3], in the experiment with CT60 cells [2], the “morphological change” value is listed as “peri-nuclear clusters of LSOs in mutant cells to become more dispersed; also recorded: morphological changes; also recorded: large network of apparently tubular organelles”.

Take `CCN(CC)CCO[C@H]1CC[C@@]2(C)C(=CC[C@@H]3[C@@H]2CC[C@]2(C)C(=O)CC[C@@H]32)C1` [Compound U18666A]: in the experiment with normal human fibroblasts [4], the “cholesterol accumulation by filipin staining and LSO compartment ratio” value is “significant increase”.
